In US6984646B2, “Imidazopyridinones as p38 map kinase inhibitors” (Bayer Healhcare AG, priority 2001, dated 2006):
pIC50: −log10 of the molar value.

Target: p38 map kinase (Homo sapiens, UniProt Q16539)
Assay: P38 map kinase assay (SPA)
Assay type: biochemical
Settings: SPA [33-P] assay, biotinylated myelin basic protein substrate 2.5 μM, 10 μM ATP, 90 min 30° C.
Source text: The assay makes use of the serine/threonine protein kinase SPA [33-P]+assay kit from Amersham Pharmacia Biotech. The assay is a homogeneous technique using SPA technology for the quantification of serine threonine kinase activity.
It is based on the p38 map kinase catalysed transfer of the γ-phosphate group of the [γ-^33P] ATP to the substrate, biotinylated myelin basic protein (MBP). The resulting [^33P]-labelled biotinylated product is trapped on a PVT SPA bead containing scintillant which has been surface coated with streptavidin.
The beads are allowed to settle to eliminate high background, and therefore only ^33P labelled product attached to the SPA bead is detected.
The assay is carried out in the presence and absence of test compounds to determine their effect on p38 map kinase activity.
A Test Protocol is as Follows:
• 1. SPA assay kit (Amersham). Components: • Assay buffer (store frozen) • Stop solution (store frozen) • Streptavidin coated SPA beads—reconstitute with 5 mls of PBS. (50 mg/ml). (Store in fridge) • 2. p38 map kinase enzyme SCRD (500 μg/ml)−aliquoted in 1.5 mls. • dilute 1:10 to 50 μg/ml • 1 plate: −110 μl (stock 500 μg/ml)+[…] PBS. • 3. Assay reagent: • for 1 plate: −504 μl Assay buffer (500 Mm MOPS pH7.2, 10 μM ATP, • 50 mM MgCl2, 25 μM biotinylated myelin basic protein (MBP)). • 2513.4 μl Water • 1.1 μl 33-p-ATP ([…]) (on activity date/adjust for activity date) • 4.534 μl×10^-2M ATP in water • 4. Stop solution: • for 1 plate: −265.92 μl streptavidin coated beads (50 mg/ml) • 1651.68 μl stop buffer (500 μM ATP, 50 mM EDTA 1% Triton X-100) • 7084.32 μl PBS. • 1. Add 10 μcompound Dilutions (5× final conc) Test wells. • 2. Add 10 μl 12.5% DMSO to control/blank wells. • 3. Add 10 μl enzyme (50 μg/ml)−final conc 500 ng/well • 4. Add 10 μPBS to blank wells. • 5. Add 30 μL of assay reagent to each well. (final conc 10 μM ATP, 2.5 μM substrate) • 6. Mix well on plate shaker • 7. Incubate 90 min (30° C.) • 8. Add 75 μl of stop solution to each well (final conc 55 μM ATP) • 9. Spin plate: −3 min/1600 rpm/20° C. (alternatively leave to settle overnight) • 10. Read in Microbeta, Protocol SPA paralux 3.

p38 map kinase, sequence (Q16539 whole entry): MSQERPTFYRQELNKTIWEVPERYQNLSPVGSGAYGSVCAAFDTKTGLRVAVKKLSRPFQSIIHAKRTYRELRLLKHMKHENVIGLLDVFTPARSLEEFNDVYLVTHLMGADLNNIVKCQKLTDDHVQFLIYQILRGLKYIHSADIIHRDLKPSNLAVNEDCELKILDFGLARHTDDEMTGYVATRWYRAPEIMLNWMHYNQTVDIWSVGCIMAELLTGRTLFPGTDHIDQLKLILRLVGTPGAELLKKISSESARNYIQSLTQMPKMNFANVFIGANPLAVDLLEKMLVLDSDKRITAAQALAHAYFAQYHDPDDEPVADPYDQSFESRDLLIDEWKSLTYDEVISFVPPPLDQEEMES

Structure (SMILES)	pIC50
O=C(c1ccccc1)c1ccc(=O)n2c1[nH]c1ccccc12 [Example 1, 4-Benzoylpyrido[1,2-a]benzimidazol-1(5H)-one]	6.29
O=C(c1ccccc1)c1ccc(=O)n2c3c([nH]c12)CCCC3 [Example 5, 4-Benzoyl-6,7,8,9-tetrahydropyrido[1,2-a]benzimidazol-1(5H)-one]	6.95

More lines, in order of rising pIC50, values ahead:

pIC50	Structure (SMILES)
6.48	Cc1[nH]c2c(C(=O)c3ccc(F)cc3)ccc(=O)n2c1C [Example 2, 8-(4-Fluorobenzoyl)-2,3-dimethylimidazo[1,2-a]pyridin-5(1H)-one]
6.63	Cc1[nH]c2c(C(=O)c3ccccc3F)ccc(=O)n2c1C [Example 3, 8-(2-Fluorbenzoyl)-2,3-dimethylimidazo[1,2-a]pyridin-5(1H)-one]
7.02	O=C(c1ccc(F)cc1F)c1ccc(=O)n2c3c([nH]c12)CCCC3 [Example 38, 4-(2,4-Difluorobenzoyl)-6,7,8,9-tetrahydropyrido[1,2-a]benzimidazol-1(51)-one]
